What was measured:
S. aureus = assay: Bioburden reduction in infected full-thickness skin tissue samples in Franz cells (total CFUs); format: cell-based, Staphylococcus aureus; conditions: 0.1 liters/minute
Excerpt: (§1) After an infection period is over, tissue samples can be homogenized, and serial dilutions can be grown on LB agar plates in order to facilitate the counting of colony formation units (CFUs), which approximate the level of bacteria present in the sample after infection. Other methods of quantifying infection and the various manifestations of infection are also possible, as would be recognized by one of ordinary skill in the art based on the present disclosure. For example, activation of various cytokines can be measured, as well as gene expression (upregulation and/or down regulation) of various genetic regulators of inflammatory and immune responses taking place in cells and tissues. These experimental procedures allow for the investigation of various experimental factors and perturbations, such as NO pressures, exposure times, and flow rates, in the context of skin infection and how they may influence bioburden reduction and wound healing.
(§2) In FIG. 4, the growth curves of several pathogenic bacteria are shown, including MRSA, Acinetobacter and Pseudomonas. In order to determine whether a given set of experimental factors or perturbations relating to NO exposure reduces bioburden, tissue samples were infected with the same concentration of bacteria under the same experimental conditions. […] In some aspects, 15 μl of a bacterial culture is sufficient to infect a cell or tissue sample.
(§3) Full-thickness skin tissue samples (e.g., EPIDERM tissue model from MatTek Corp., Ashland, Mass. 01721) were exposed to various experimental factors. […] The skin samples used were infected with S. aureus for 24 hours, followed by 90 minutes of pressurized exposure at a flow rate of 0.1 liters/minute.
(§4) The samples used were infected with Staphylococcus, MRSA, Acinetobacter or Pseudomonas.
(§5) Experiments were also conducted as described above in the previous examples to determine the minimum amount of exposure time necessary to obtain maximum reductions in bioburden. In some cases, determining the minimum tissue exposure time to gNO can reduce any potentially detrimental effects on the health of the tissue, while still reducing bioburden. Flow rate was maintained at 0.1 liters/minute, but the exposure time was shortened to 60 minutes at 1 ATM (independent of and in addition to the pressure applied by the external environment).
Experiments were also conducted as described above in the previous examples to determine the minimum amount of gNO pressure necessary to obtain maximum reductions in bioburden. In some cases, determining the minimum amount of gNO pressure can reduce any potentially detrimental effects on the health of the tissue, while still reducing bioburden.

A. baumannii = assay: as above; format: cell-based; conditions: 1 ATM, 0.1 liters/minute
Excerpt: as §1, §2, §3, §4, §5

MRSA = assay: as above; format: cell-based; conditions: 1 ATM, 0.1 liters/minute
Excerpt: as §1, §2, §3, §4, §5

P. aeruginosa = assay: as above; format: cell-based; conditions: 1 ATM, 0.1 liters/minute
Excerpt: as §1, §2, §3, §4, §5

[1] = system: full-thickness skin tissue samples; assay: Tissue viability using MTT assays; format: cell-based, human
Method: Experiments were also conducted to investigate the effects of various NO pressures, exposure times, and flow rates on tissue viability using MTT assays. An MTT assay is a colorimetric assay for assessing cell viability. NAD(P)H-dependent cellular oxidoreductase enzymes may, under defined conditions, reflect the number of viable cells present. These enzymes are capable of reducing the tetrazolium dye MTT 3-(4,5-dimethylthiazol-2-yl)-2,5-diphenyltetrazolium bromide to its insoluble formazan, which has a purple color. Other closely related tetrazolium dyes including XTT, MTS and the WSTs, can also be used. Tetrazolium-based dye assays can also be used to measure cytotoxicity (loss of viable cells) or cytostatic activity (shift from proliferation to quiescence) of potential medicinal agents and toxic materials.

## [N]=O [gNO, Nitric Oxide]
S. aureus; NO at 0.25 ATM, 90 minutes, infected 24 hours
  bioburden reduction: sufficient to reduce bioburden
S. aureus; NO at 0.3 ATM, 90 minutes, infected 24 hours
  bioburden reduction: sufficient to reduce bioburden
S. aureus; S. aureus (biofilm-forming), 1% NO, 90 min, 1 ATM, infected 24 hours
  log reduction in bioburden: ~3 log
S. aureus; S. aureus, 60 minutes, 1 ATM
  reduction of bioburden compared to controls: did not show significant reduction of bioburden
S. aureus; Staphylococcus, 1% NO, 1 ATM, 120 minutes, 24 hours of infection
  bacterial bioburden (CFUs): completely eliminated
S. aureus; pressurized gNO at 1 ATM compared to 0 ATM, 90 minutes, infected 24 hours
  bioburden (total CFUs): did significantly reduce bioburden
A. baumannii; A. baumannii, 1% NO, 90 min, infected 24 hours
  log reduction in bioburden: 5-6 log
A. baumannii; A. baumannii, 60 minutes
  reduction of bioburden compared to controls: effective
A. baumannii; Acinetobacter, 1% NO, 120 minutes, 24 hours of infection
  bacterial bioburden (CFUs): completely eliminated
MRSA; 1% NO, 120 minutes, 24 hours of infection
  bacterial bioburden (CFUs): completely eliminated
MRSA; 1% NO, 90 min, infected 24 hours
  log reduction in bioburden: 5-6 log
MRSA; 60 minutes
  reduction of bioburden compared to controls: did not show significant reduction of bioburden
P. aeruginosa; P. aeruginosa, 1% NO, 90 min, infected 24 hours
  log reduction in bioburden: 5-6 log
P. aeruginosa; P. aeruginosa, 60 minutes
  reduction of bioburden compared to controls: effective
P. aeruginosa; Pseudomonas, 1% NO, 120 minutes, 24 hours of infection
  bacterial bioburden (CFUs): completely eliminated
[1]; 1% NO with or without pressure, as exposure time decreased
  tissue viability (MTT): viability increased
[1]; combination of pressurized gNO and increasing concentrations of NO
  tissue viability (MTT): caused a decrease in viability
